The test system of assay [1] is critical-care post-surgical patients. To be noted: intervention group: insulin infusion to blood glucose 80-110 mg/dL; cited from earlier work.
The subject of assay [2] is diabetic patients hospitalized with acute MI. To be noted: IV insulin-glucose infusion then chronic insulin vs standard treatment; cited from earlier work.
Assay [3] can be described thus: Respective studies with other long-acting insulins. Type of assay: in vivo. As to conditions: no data given. From the text: The results of the ORIGIN study were obtained with the long-lasting insulin glargine.

On to “insulin: insulin infusion or chronic insulin treatment in cited DIGAMI and Belgian ICU studies”, for which the “overall mortality at twelve-months follow-up” value in assay [1] is 8.0%. The “reduction of all-cause mortality” value in assay [2] is 28%. As for insulin degludec, the “results of respective studies compared with the ORIGIN results of insulin glargine” value in assay [3] is listed as “comparable results”. On the same count and under the same terms, in the case of insulin detemir it was “comparable results”.

The values above are taken from US20150065421A1, “BASAL INSULIN THERAPY” (SANOFI, priority 2012, published 2015).
